Results published in patent publication US20230270881A1, “ONCOGENIC TRIM37 IS A TARGETABLE EPIGENETIC DRIVER OF METASTASIS AND LINKS CHEMORESISTANCE AND METASTATIC FATE IN TRIPLE-NEGATIVE BREAST CANCER” (University of Virginia Patent Foundation, priority 2020, published 2023).

T1: RAD50 (human, UniProt Q92878 1-1312)
T1 construct: Only co-sedimentation with TRIM37 is reported
T1 sequence (looked up): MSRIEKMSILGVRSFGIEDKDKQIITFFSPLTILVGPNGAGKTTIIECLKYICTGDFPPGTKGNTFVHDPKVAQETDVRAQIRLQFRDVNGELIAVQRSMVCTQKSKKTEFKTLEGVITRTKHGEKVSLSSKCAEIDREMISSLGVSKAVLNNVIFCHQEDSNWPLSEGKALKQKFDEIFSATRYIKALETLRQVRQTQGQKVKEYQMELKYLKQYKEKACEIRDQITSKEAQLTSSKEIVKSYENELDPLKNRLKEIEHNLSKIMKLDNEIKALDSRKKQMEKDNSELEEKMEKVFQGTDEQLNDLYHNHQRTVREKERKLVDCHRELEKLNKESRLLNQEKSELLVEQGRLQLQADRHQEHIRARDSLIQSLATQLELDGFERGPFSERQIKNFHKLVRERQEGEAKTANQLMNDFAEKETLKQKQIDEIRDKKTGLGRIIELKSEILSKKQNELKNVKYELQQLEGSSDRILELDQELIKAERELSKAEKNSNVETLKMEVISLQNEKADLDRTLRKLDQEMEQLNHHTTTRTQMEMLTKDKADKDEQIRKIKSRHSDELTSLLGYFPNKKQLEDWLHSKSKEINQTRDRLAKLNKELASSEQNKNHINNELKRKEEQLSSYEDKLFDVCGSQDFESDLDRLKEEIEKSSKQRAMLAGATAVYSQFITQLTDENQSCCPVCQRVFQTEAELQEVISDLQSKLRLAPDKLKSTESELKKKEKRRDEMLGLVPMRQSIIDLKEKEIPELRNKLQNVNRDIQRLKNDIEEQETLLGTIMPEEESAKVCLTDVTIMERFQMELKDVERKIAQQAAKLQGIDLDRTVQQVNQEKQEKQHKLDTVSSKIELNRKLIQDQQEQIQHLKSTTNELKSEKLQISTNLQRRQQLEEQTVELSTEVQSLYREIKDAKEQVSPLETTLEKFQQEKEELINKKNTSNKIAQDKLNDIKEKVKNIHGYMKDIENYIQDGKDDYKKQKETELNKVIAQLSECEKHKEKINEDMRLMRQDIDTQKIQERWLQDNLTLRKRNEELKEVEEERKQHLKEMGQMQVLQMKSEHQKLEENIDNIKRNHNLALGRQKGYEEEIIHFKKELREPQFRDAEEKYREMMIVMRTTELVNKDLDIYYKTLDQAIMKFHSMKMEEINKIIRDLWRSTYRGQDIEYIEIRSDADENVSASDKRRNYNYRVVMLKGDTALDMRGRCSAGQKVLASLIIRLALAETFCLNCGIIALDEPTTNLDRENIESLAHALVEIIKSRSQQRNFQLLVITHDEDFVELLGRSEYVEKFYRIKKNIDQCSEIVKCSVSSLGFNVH

B1: MRE11 (other, human, UniProt P49959 2-708, looked up)
chain: STADALDDENTFKILVATDIHLGFMEKDAVRGNDTFVTLDEILRLAQENEVDFILLGGDLFHENKPSRKTLHTCLELLRKYCMGDRPVQFEILSDQSVNFGFSKFPWVNYQDGNLNISIPVFSIHGNHDDPTGADALCALDILSCAGFVNHFGRSMSVEKIDISPVLLQKGSTKIALYGLGSIPDERLYRMFVNKKVTMLRPKEDENSWFNLFVIHQNRSKHGSTNFIPEQFLDDFIDLVIWGHEHECKIAPTKNEQQLFYISQPGSSVVTSLSPGEAVKKHVGLLRIKGRKMNMHKIPLHTVRQFFMEDIVLANHPDIFNPDNPKVTQAIQSFCLEKIEEMLENAERERLGNSHQPEKPLVRLRVDYSGGFEPFSVLRFSQKFVDRVANPKDIIHFFRHREQKEKTGEEINFGKLITKPSEGTTLRVEDLVKQYFQTAEKNVQLSLLTERGMGEAVQEFVDKEEKDAIEELVKYQLEKTQRFLKERHIDALEDKIDEEVRRFRETRQKNTNEEDDEVREAMTRARALRSQSEESASAFSADDLMSIDLAEQMANDSDDSISAATNKGRGRGRGRRGGRGQNSASRGGSQRGRADTGLETSTRSRNSKTAVSASRNMSIIDAFKSTRQQPSRNVTTKNYSEVIEVDESDVEEDIFPTTSKTDQRWSSTSSSKIMSQSQVSKGVDFESSEDDDDDPFMNTSSLRRNRR
notes: Only co-sedimentation with TRIM37 is reported
B2: tripartite motif-containing protein 37 (TRIM37) (enzyme)
chain: MDEQSVESIAEVFRCFICMEKLRDARLCPHCSKLCCFSCIRRWLTEQRAQCPHCRAPLQLRELVNCRWAEEVTQQLDTLQLCSLTKHEENEKDKCENHHEKLSVFCWTCKKCICHQCALWGGMHGGHTFKPLAEIYEQHVTKVNEEVAKLRRRLMELISLVQEVERNVEAVRNAKDERVREIRNAVEMMIARLDTQLKNKLITLMGQKTSLTQETELLESLLQEVEHQLRSCSKSELISKSSEILMMFQQVHRKPMASFVTTPVPPDFTSELVPSYDSATFVLENFSTLRQRADPVYSPPLQVSGLCWRLKVYPDGNGVVRGYYLSVFLELSAGLPETSKYEYRVEMVHQSCNDPTKNIIREFASDFEVGECWGYNRFFRLDLLANEGYLNPQNDTVILRFQVRSPTFFQKSRDQHWYITQLEAAQTSYIQQINNLKERLTIELSRTQKSRDLSPPDNHLSPQNDDALETRAKKSACSDMLLEGGPTTASVREAKEDEEDEEKIQNEDYHHELSDGDLDLDLVYEDEVNQLDGSSSSASSTATSNTEENDIDEETMSGENDVEYNNMELEEGELMEDAAAAGPAGSSHGYVGSSSRISRRTHLCSAATSSLLDIDPLILIHLLDLKDRSSIENLWGLQPRPPASLLQPTASYSRKDKDQRKQQAMWRVPSDLKMLKRLKTQMAEVRCMKTDVKNTLSEIKSSSAASGDMQTSLFSADQAALAACGTENSGRLQDLGMELLAKSSVANCYIRNSTNKKSNSPKPARSSVAGSLSLRRAVDPGENSRSKGDCQTLSEGSPGSSQSGSRHSSPRALIHGSIGDILPKTEDRQCKALDSDAVVVAVFSGLPAVEKRRKMVTLGANAKGGHLEGLQMTDLENNSETGELQPVLPEGASAAPEEGMSSDSDIECDTENEEQEEHTSVGGFHDSFMVMTQPPDEDTHSSFPDGEQIGPEDLSFNTDENSGR
notes: Endogenous TRIM37 in extracts of human TNBC cell lines (MDA MB 468 nuclear extract for co-immunoprecipitation, HCC1806 whole cell extract for sucrose gradient)

Experiments:
MDA-MB-468 cells = assay: Chemical inhibitor treatment with Dox, qRT-PCR of TRIM37; format: cell-based, human; conditions: in combination with Dox
Method: Quantitative RT-PCR (qRT-PCR). Total RNA was isolated and reverse transcribed using Superscript II Reverse Transcriptase (Invitrogen). Gene expression was normalized to Gapdh. Controls lacking reverse transcriptase were carried out in parallel to rule out the possibility of DNA contamination. Each sample was analyzed at least two independent times and the results from at least three different biological triplicates are presented.
(§1) Chemical inhibitor treatment. MDA-MB-468 cells were treated for 24 hrs with 10 µM Dox and small molecule inhibitors at the following concentrations: 10 µM KU000553 (Cayman Chemical), 50 µM AG490 (Cayman Chemical), and 40 µM HLM006474 (Sigma-Aldrich) for 24 hrs.

TRIM37 [1] = assay: Directed-ChIP assays; format: cell-based, human; conditions: MDA MB 468 cells, in combination with Dox
Method: Directed-ChIP assays. ChIP assays were performed as described previously (Bhatnagar et al., 2014) using cell extracts prepared 1 day after Cas9 transduction or inhibitor treatment, and antibodies against BMI1 (Abcam), H2Aub (Cell Signaling Technology), TRIM37 (Abcam), STAT1 (Cell Signaling Technology), STAT3 (Cell Signaling Technology), E2F1 (Cell Signaling Technology), and as a negative control, IgG. Each ChIP experiment was carried out at least three independent times and the results from at least three biological experiments, with technical duplicates, are shown.
as §1

TRIM37 [2] = assay: Immunoblotting of TRIM37 in treated cells; format: cell-based, human; conditions: TNBC cells
Method: Immunoblotting. Cell extracts were prepared by lysing cell pellet in RIPA buffer supplemented with 1 mM sodium ortho-vanadate and 10 mM PMSF. To prepare protein extract from mouse tissue, it was homogenized in lysis buffer (1% SDS, 1 mM sodium ortho-vanadate, 10 mM Tris pH 7.4 and protease inhibitor). Immunoblots were probed using antibodies against TRIM37 (Abcam), PARP (Cell Signaling Technology), p21 (Cell Signaling Technology), γ-ph-H2AX (Cell Signaling Technology), RAD51C (Invitrogen), ph-ATM (Cell Signaling Technology), ph-STAT1 (Cell Signaling Technology), ph-STAT3 (Cell Signaling Technology), ph-STAT5 (Cell Signaling Technology), BIM (Abcam), FOLR1 (R&D) and α-tubulin (Invitrogen).

[3] = target: B2; assay: sucrose gradient sedimentation of HCC1806 whole cell extract, immunoblot of fractions
Method: (§2) Sucrose gradient fractionation. Sucrose gradient sedimentation analysis was performed as described previously (Bhatnagar et al., 2014). Briefly, 10-40% gradients were formed by layering 200 µl NEB1 buffer containing 10%, 20%, 30% or 40% sucrose in a 13 x 51 mm centrifuge tube (Beckman) and allowed to equilibrate at room temperature for 2 hrs. Gradients were chilled, loaded with […] HCC1806 extract (adjusted to a volume of 200 µl) or 200 µl molecular weight markers (Sigma MW-GF-1000), and centrifuged in a Beckman SW 55 Ti rotor at 214,000 g for 14 hrs. Twenty-five fractions of 200 µl were collected. For the markers, 20 µl of each fraction was electrophoresed and Coomassie stained.

RAD50 = target: T1, RAD50; assay: as above
Method: as §2

Molecule: O=c1cc(-c2cccc3c2Sc2ccccc2S3)oc(N2CCOCC2)c1 [KU000553]
- TRIM37 upregulation following Dox-treatment (qRT-PCR) (MDA-MB-468 cells): blocks TRIM37 upregulation

Molecule: N#C/C(=C/c1ccc(O)c(O)c1)C(=O)NCc1ccccc1 [AG490]
- Dox-induced STAT1, STAT3, and E2F1 recruitment to TRIM37 (ChIP) (TRIM37 [1]): substantially decreased
- TRIM37 upregulation following Dox-treatment (qRT-PCR) (MDA-MB-468 cells): blocks TRIM37 upregulation

Molecule: CCOc1ccc(C(Nc2ccccn2)c2ccc3ccc(C)nc3c2O)cc1C (stereo not drawn) [HLM006474]
- Dox-induced STAT1, STAT3, and E2F1 recruitment to TRIM37 (ChIP) (TRIM37 [1]): substantially decreased
- TRIM37 upregulation following Dox-treatment (qRT-PCR) (MDA-MB-468 cells): blocks TRIM37 upregulation

Molecule: N.N.[Cl][Pt][Cl] [cisplatin]
- TRIM37 expression post-treatment relative to DMSO (TRIM37 [2]): increased TRIM37 expression

Molecule: COc1cccc2c1C(=O)c1c(O)c3c(c(O)c1C2=O)C[C@@](O)(C(C)=O)C[C@@H]3O[C@H]1C[C@H](N)[C@H](O)[C@H](C)O1 [daunorubicin]
- TRIM37 expression post-treatment relative to DMSO (TRIM37 [2]): increased TRIM37 expression

Molecule: B1
- binding result [3]: binds

Molecule: B2
- binding result (RAD50): binds
